Data reported in the supplement of paper PMC10307832.

Tests used:
Assay in all cases: relative viability (nuclei count vs DMSO), 5 days (fraction); higher = more cells survive
[1] = compound: O=c1[nH]cc(F)c(=O)[nH]1 [5-Fluorouracil] + CC(C)C[C@H](NC(=O)[C@H](Cc1ccccc1)NC(=O)c1cnccn1)B(O)O [Bortezomib] (partner 0.002 µM)
In short: (§1)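 Lung cancer cell lines, seeded in 1536-well plates, were treated the following day by pin tool with a single drug or with five library-drug doses (not always all listed) in √10 steps on top of a fixed anchor-drug dose. Cells were fixed and nuclei stained in one step after 5 days, and nuclei were counted. Relative viability is the nuclei count for treated wells divided by that for vehicle wells, reported as medians of duplicate plates.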

[2] = compound: CC1=C(CC(=O)O)c2cc(F)ccc2/C1=C\c1ccc([S+](C)[O-])cc1 [Sulindac] + N=C(N)NC(=N)NCCc1ccccc1 [Phenformin] (partner 250 µM)
In short: as §1

[3] = compound: CC1=C(CC(=O)O)c2cc(F)ccc2/C1=C\c1ccc([S+](C)[O-])cc1 [Sulindac] + COc1cccc2cc(-c3nc([C@H]4CC[C@H](C(=O)O)CC4)n4ncnc(N)c34)[nH]c12 [OSI-027] (partner 0.5 µM)
In short: as §1

[4] = compound: CN[C@@H]1C[C@H]2O[C@@](C)([C@@H]1OC)n1c3ccccc3c3c4c(c5c6ccccc6n2c5c31)C(=O)NC4 [Staurosporine] + CC(C)C[C@H](NC(=O)[C@H](Cc1ccccc1)NC(=O)c1cnccn1)B(O)O [Bortezomib] (partner 0.002 µM)
In short: as §1

Cell Line	relative viability ([1]; first compound 0.02 µM)	relative viability ([1]; first compound 0.2 µM)	relative viability ([1]; first compound 0.6325 µM)	relative viability ([1]; first compound 2 µM)	relative viability ([2]; first compound 0.08 µM)	relative viability ([2]; first compound 0.253 µM)	relative viability ([2]; first compound 0.8 µM)	relative viability ([2]; first compound 2.53 µM)	relative viability ([2]; first compound 8 µM)	relative viability ([3]; first compound 0.08 µM)	relative viability ([3]; first compound 0.253 µM)	relative viability ([3]; first compound 0.8 µM)	relative viability ([3]; first compound 2.53 µM)	relative viability ([3]; first compound 8 µM)	relative viability ([4]; first compound 0.005 µM)	relative viability ([4]; first compound 0.01581 µM)	relative viability ([4]; first compound 0.05 µM)	relative viability ([4]; first compound 0.1581 µM)	relative viability ([4]; first compound 0.5 µM)
LCLC-97TM1	0.53	1.03	0.396	0.12	0.497	0.518	0.447	0.441	0.486	0.629	0.626	0.294	0.426	0.589	0.164	0.158	0.219	0.151	0.0852
LCLC-103H	0.99	1.18	0.931	0.632	0.361	0.318	0.286	0.315	0.323	0.558	0.499	0.388	0.496	0.555	1.03	0.613	0.364	0.274	0.251
LOU-NH91	0.522	0.559	0.37	0.36	0.708	0.68	0.681	0.717	0.853	0.681	0.714	0.808	0.705	0.73	0.519	0.461	0.54	0.369	0.374
LU99A	1.08	1.14	1.01	0.593	0.86	0.853	0.83	0.827	1.11	0.306	0.289	0.284	0.299	0.306	0.985	0.389	0.318	0.271	0.172
LXF-289	0.99	0.712	0.312	0.282	0.551	0.559	0.491	0.517	0.559	0.829	0.863	0.749	0.753	0.844	0.822	–	0.257	0.122	0.0797
NCI-H23	1.07	1.34	0.598	0.309	0.819	–	0.61	0.819	0.824	0.678	–	0.602	0.583	0.72	0.975	0.215	0.259	0.155	0.107
NCI-H322M	1.44	1.17	1.03	0.652	0.881	0.833	0.668	0.762	0.879	0.6	0.534	0.442	0.557	0.602	1.3	1.14	0.993	0.78	0.742
NCI-H441	0.513	0.408	0.482	0.303	0.992	1.03	0.456	0.808	0.958	0.627	0.597	0.416	0.679	0.759	0.391	0.209	0.212	0.133	0.126
NCI-H460	1.34	0.488	0.141	0.0496	1.03	0.666	0.201	0.543	0.585	1.5	0.811	0.566	0.688	0.77	1.08	0.733	0.463	0.0074	0.0085
NCI-H520	0.587	0.438	0.382	0.312	0.738	0.949	0.412	0.347	0.67	0.266	0.266	–	0.232	0.307	0.716	0.128	0.307	0.207	0.117
NCI-H596	1.14	0.794	0.694	0.597	0.839	0.892	0.56	0.71	0.771	0.798	0.761	0.76	0.77	0.772	1.38	0.549	1	0.282	0.393
NCI-H647	0.925	1.15	0.992	0.61	0.647	0.717	0.246	0.623	0.645	0.63	0.947	0.487	0.677	0.683	0.532	0.164	0.285	0.0743	0.0533
NCI-H650	0.894	0.622	0.517	0.529	0.448	0.466	0.389	0.471	0.502	0.506	0.523	0.523	0.545	0.566	0.504	0.283	0.315	0.212	0.206
NCI-H661	0.669	0.816	0.759	0.804	0.244	0.258	0.28	0.246	0.277	0.735	0.838	0.622	0.711	0.797	0.716	0.453	0.341	0.275	0.228
NCI-H727	1	1.01	0.776	0.782	0.406	0.554	–	0.564	0.584	0.561	0.538	–	0.537	1	0.703	0.354	0.345	0.352	0.158
NCI-H838	0.732	0.794	0.637	0.281	0.519	0.652	0.364	0.518	0.6	0.382	0.424	0.367	0.358	0.388	0.289	0.0982	0.133	0.15	0.0919
NCI-H1355	1.17	1.1	0.404	0.3	0.451	0.506	–	0.44	0.46	0.403	0.454	–	0.38	0.393	1.09	0.693	0.259	0.202	0.209
NCI-H1437	–	0.218	0.144	0.128	0.251	0.321	0.197	0.301	0.373	1.01	1	0.767	0.811	0.96	0.356	0.167	0.294	0.0975	0.0786
NCI-H1563	0.895	0.859	0.841	0.718	0.647	0.626	0.608	0.694	0.677	0.754	0.784	0.762	0.703	0.784	0.655	0.571	0.661	0.501	0.438
NCI-H1650	0.195	0.187	0.185	0.174	0.372	0.481	–	0.41	0.53	0.452	0.567	–	0.45	0.734	0.205	0.179	0.197	0.179	0.194
NCI-H1651	1.05	0.873	0.464	0.406	0.399	0.342	–	0.307	0.362	0.783	0.698	–	0.801	0.85	0.997	0.772	0.661	0.368	0.349
NCI-H1666	0.878	0.475	0.39	0.39	0.564	0.629	0.561	0.529	0.631	0.857	0.882	0.753	0.826	0.915	0.638	0.468	0.493	0.29	0.189
NCI-H1734	0.853	1.06	0.723	0.494	0.402	0.337	–	0.396	0.496	0.663	0.636	–	0.583	0.711	0.741	0.316	0.251	0.127	–
NCI-H1755	0.975	0.442	0.397	0.311	0.645	0.653	0.525	0.643	0.648	0.776	0.64	0.661	0.733	0.763	0.788	0.364	0.251	0.171	0.157
NCI-H1792	1.03	0.84	0.272	0.185	0.243	0.441	–	0.353	0.255	0.848	0.884	–	0.815	0.899	1.05	0.797	0.372	0.182	0.196
NCI-H1915	0.717	1	0.915	0.765	0.445	0.389	–	0.378	0.382	0.764	0.688	–	0.678	0.625	1.04	–	0.327	0.118	0.154
NCI-H1975	0.472	0.3	0.214	0.17	0.27	0.404	0.365	0.403	0.457	0.93	0.762	0.489	0.759	0.835	0.22	0.144	0.143	0.129	–
NCI-H1993	1.36	0.919	0.658	0.559	0.431	0.479	0.51	0.461	0.531	0.513	0.554	0.495	0.542	0.581	–	0.44	0.463	0.483	0.315
NCI-H2009	1.04	1.01	0.722	0.463	0.549	0.521	0.45	0.53	0.538	0.732	0.77	0.582	0.626	0.731	0.278	0.147	0.165	0.0953	0.0887
